Measured values as given in ChEMBL document CHEMBL5465560, “Selectivity Literature for EUbOPEN Chemogenomic Library” (2024).
Blank lines part the entries; values can stand above or below the molecule they belong to.

Assays:
[1] = target: T1, Mitogen-activated protein kinase 12 (Homo sapiens) (UniProt P53778); assay: Selectivity interaction (Kinase panel (literature)) EUB0001199aCl MAPK12; details: at 1 µM
T1 sequence (whole entry): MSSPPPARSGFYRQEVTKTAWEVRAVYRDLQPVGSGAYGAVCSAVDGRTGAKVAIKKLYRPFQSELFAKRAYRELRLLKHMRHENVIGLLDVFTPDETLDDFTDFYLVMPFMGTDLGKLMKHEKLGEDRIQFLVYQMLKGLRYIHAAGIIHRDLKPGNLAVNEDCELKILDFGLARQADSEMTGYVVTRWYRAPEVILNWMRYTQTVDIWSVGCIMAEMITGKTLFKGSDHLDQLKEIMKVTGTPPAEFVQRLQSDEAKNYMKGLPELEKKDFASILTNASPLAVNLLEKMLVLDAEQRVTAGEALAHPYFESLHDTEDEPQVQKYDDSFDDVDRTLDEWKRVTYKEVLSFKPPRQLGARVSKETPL

[2] = target: Serine/threonine-protein kinase MARK2 (Homo sapiens) (UniProt Q7KZI7); details: at 10 µM
[3] = target: T2, Bone morphogenetic protein receptor type-2 (Homo sapiens) (UniProt Q13873); assay: Selectivity interaction (KinomeScan (DiscoverX)) EUB0000092b BMPR2; details: at 10 µM
T2 sequence (whole entry): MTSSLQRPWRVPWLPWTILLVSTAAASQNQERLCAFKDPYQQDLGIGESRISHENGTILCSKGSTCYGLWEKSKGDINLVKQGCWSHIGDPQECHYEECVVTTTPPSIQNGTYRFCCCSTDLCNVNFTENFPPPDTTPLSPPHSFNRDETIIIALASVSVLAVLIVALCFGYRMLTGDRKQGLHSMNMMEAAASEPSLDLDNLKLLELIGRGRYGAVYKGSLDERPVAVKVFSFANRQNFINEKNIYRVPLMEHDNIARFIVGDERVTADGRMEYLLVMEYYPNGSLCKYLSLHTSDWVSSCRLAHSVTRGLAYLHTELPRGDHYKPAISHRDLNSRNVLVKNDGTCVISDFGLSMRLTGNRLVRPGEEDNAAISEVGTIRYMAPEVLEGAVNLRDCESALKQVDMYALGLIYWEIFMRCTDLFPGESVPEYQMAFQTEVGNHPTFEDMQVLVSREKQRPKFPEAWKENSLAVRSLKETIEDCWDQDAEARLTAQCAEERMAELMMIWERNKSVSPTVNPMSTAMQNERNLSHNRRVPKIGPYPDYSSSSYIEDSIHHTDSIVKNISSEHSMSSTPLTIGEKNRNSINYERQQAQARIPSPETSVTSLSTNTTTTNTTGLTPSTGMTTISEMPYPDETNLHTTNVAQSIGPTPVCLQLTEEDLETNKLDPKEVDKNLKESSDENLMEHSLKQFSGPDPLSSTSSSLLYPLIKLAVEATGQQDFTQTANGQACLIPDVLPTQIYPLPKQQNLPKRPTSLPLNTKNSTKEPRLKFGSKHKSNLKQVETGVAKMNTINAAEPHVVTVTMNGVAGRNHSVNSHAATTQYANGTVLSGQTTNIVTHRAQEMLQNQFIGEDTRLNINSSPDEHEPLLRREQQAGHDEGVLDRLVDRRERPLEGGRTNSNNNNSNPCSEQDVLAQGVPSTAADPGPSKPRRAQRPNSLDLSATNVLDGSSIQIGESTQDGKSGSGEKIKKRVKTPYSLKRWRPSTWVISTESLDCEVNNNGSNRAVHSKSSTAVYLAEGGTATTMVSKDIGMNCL

[4] = target: E3 ubiquitin-protein ligase TRIM33 (Homo sapiens) (UniProt Q9UPN9); assay: Selectivity interaction (Human bromodomain panel (DSF assay)) EUB0000233b TRIM33
[5] = target: T3, Phosphatidylinositol 4,5-bisphosphate 3-kinase catalytic subunit delta isoform (Homo sapiens) (UniProt O00329); assay: Selectivity interaction (KinomeScan (DiscoverX)) EUB0000045b PIK3CD
T3 sequence (whole entry): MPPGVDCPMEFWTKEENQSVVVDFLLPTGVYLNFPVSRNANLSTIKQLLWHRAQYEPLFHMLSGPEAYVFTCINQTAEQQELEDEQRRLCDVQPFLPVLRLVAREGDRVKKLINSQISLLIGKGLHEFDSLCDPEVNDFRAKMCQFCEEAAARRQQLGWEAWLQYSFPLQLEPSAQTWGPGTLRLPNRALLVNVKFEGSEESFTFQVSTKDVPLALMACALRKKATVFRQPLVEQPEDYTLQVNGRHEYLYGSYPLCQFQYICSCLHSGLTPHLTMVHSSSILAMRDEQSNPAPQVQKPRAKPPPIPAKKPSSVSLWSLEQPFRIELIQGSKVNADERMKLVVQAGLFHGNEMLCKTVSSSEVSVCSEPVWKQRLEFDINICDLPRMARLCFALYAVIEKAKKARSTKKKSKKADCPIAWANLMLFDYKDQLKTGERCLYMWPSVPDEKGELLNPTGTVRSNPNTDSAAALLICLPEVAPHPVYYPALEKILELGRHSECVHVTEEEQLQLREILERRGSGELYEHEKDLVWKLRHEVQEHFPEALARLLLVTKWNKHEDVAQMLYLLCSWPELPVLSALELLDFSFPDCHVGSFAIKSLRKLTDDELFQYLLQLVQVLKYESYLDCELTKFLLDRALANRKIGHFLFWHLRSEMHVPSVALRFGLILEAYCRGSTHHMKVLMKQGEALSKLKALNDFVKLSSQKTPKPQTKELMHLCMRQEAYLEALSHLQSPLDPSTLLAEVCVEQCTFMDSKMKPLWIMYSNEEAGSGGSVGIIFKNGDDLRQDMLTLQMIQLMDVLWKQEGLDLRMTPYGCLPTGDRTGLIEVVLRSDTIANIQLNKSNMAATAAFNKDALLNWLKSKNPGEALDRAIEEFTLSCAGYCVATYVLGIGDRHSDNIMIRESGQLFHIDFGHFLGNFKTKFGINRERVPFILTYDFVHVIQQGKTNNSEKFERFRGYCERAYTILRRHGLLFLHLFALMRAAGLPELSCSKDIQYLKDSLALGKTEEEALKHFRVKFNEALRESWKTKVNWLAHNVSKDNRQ

[6] = target: Ribosomal protein S6 kinase alpha-6 (Homo sapiens, UniProt Q9UK32); assay: Selectivity interaction (KinomeScan (DiscoverX)) EUB0000655a RPS6KA6; details: at 10 µM
Chain of Ribosomal protein S6 kinase alpha-6 (Q9UK32 whole entry): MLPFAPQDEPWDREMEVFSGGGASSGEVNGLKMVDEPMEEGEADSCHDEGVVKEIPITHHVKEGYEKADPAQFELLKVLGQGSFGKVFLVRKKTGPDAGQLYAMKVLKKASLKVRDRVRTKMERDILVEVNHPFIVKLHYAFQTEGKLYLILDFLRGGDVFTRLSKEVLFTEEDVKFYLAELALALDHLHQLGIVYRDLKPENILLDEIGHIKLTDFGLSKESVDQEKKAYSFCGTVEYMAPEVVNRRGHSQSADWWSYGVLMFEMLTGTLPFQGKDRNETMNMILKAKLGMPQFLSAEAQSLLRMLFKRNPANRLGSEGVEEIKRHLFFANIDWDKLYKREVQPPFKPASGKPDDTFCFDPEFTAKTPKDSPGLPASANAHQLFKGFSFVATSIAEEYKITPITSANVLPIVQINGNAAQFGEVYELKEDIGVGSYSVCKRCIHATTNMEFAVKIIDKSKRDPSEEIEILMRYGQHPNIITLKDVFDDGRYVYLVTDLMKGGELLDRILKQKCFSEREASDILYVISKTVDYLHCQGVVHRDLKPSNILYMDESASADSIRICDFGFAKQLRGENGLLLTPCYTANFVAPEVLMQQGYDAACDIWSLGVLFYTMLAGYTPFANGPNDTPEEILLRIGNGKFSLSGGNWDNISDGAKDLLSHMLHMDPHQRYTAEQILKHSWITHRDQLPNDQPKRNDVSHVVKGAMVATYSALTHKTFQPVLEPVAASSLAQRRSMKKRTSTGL

Chain of E3 ubiquitin-protein ligase TRIM33 (Homo sapiens) (Q9UPN9 whole entry, canonical isoform): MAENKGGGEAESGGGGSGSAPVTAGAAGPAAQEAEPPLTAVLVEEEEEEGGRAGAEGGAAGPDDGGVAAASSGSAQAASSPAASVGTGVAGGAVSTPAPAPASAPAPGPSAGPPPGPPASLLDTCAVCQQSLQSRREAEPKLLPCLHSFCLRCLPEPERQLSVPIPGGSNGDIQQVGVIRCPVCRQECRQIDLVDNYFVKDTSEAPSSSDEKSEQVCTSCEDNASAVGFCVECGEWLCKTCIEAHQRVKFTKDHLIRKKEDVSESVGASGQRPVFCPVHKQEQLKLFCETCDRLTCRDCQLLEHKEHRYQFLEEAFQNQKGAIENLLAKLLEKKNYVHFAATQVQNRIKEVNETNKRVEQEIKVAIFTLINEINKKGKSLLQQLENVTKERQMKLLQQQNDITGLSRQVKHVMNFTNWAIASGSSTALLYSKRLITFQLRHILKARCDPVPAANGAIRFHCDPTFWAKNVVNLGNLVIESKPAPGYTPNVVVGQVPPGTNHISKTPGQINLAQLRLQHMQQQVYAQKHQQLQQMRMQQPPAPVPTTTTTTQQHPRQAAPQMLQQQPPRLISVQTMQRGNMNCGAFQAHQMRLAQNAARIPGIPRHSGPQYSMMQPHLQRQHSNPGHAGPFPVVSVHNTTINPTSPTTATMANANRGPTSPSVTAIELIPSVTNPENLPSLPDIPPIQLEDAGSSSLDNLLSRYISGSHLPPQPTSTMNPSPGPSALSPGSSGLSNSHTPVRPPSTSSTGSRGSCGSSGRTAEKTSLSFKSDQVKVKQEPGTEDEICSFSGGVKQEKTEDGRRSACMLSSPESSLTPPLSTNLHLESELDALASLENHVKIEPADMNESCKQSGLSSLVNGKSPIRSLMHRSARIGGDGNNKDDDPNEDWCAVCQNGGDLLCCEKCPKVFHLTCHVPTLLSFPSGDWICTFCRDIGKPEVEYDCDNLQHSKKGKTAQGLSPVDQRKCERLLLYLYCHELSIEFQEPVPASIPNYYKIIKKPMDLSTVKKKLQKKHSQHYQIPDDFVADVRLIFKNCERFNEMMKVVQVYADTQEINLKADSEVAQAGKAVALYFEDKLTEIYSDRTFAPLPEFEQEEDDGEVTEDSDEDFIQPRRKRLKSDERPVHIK
Chain of Serine/threonine-protein kinase MARK2 (Homo sapiens) (Q7KZI7 whole entry): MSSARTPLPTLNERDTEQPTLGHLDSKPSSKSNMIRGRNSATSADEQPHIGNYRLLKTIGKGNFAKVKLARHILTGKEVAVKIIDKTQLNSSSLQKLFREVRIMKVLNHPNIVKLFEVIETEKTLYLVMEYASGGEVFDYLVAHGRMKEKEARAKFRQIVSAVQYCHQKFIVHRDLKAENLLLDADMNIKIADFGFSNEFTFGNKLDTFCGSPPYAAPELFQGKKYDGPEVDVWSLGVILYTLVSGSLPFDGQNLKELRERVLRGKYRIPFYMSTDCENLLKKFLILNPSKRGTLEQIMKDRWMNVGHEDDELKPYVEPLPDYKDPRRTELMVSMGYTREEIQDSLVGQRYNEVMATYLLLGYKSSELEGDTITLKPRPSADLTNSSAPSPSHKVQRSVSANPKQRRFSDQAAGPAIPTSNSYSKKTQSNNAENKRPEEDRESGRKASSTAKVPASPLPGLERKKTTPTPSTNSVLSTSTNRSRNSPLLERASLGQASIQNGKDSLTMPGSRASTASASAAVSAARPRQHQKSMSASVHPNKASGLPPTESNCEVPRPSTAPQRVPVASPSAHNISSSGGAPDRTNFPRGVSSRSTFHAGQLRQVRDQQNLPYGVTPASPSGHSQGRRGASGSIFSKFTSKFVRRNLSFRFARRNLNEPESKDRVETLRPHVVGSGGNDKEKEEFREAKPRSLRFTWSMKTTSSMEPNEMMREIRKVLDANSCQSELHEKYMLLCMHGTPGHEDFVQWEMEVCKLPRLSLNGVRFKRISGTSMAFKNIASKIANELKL

SMILES: CCN(CC)CCCCNc1ncc2cc(-c3cc(OC)cc(OC)c3)c(NC(=O)NC(C)(C)C)nc2n1
- % of control [2]: 100%

SMILES: CCC(=O)N1CCN(c2ccc(-n3c(=O)ccc4cnc5ccc(-c6cnc7ccccc7c6)cc5c43)cc2C(F)(F)F)CC1
- % of control [3]: 85%

SMILES: C=CC(=O)Nc1cc(-n2c(=O)ccc3cnc4ccc(-c5ccc(NS(C)(=O)=O)cc5)cc4c32)ccc1C
- % of control ([5]; at 1 µM): 73%
- % of control ([5]; at 10 µM): 100%

SMILES: CN(C)CCOc1ccc(-c2nc(-c3ccncc3)c(-c3ccc4c(c3)CC/C4=N\O)[nH]2)cc1
- % of control [6]: 82%

Continued, values first:

- % of inhibition [1]: 10%
SMILES: CN1Cc2nccc(-c3cn(C)nc3-c3ccc(F)cc3)c2C1=O

- dTM [4]: < 2 K
SMILES: CN(C)CCCOc1ccc(-c2cc(NCCCn3cccn3)nc(S(C)(=O)=O)n2)cc1
